Drawing on ChEMBL document CHEMBL3045305, “Synthesis, anticancer and antibacterial activities of piperine analogs” (Med Chem Res, 2013), this text covers MIC for 7 compounds.

Converted amounts (≈) assume the structure as drawn.

The term MIC denotes the smallest concentration in the dilution series that meets the test's criterion for growth inhibition.

Common to all, as to type: functional
One experiment relates to Pseudomonas aeruginosa. The experiment is described as follows: Antibacterial activity against Pseudomonas aeruginosa assessed as growth inhibition after 24 hr by two-fold serial dilution method.
In a further experiment the test system is Staphylococcus aureus. Kind of experiment: Antibacterial activity against Staphylococcus aureus assessed as growth inhibition after 24 hr by two fold serial dilution method.
The subject of another experiment is Bacillus subtilis. Kind of experiment: Antibacterial activity against Bacillus subtilis assessed as growth inhibition after 24 hr by two fold serial dilution method.
Another experiment relates to Shigella dysenteriae. The experiment is described as follows: Antibacterial activity against Shigella dysenteriae assessed as growth inhibition after 24 hr by two-fold serial dilution method.
For another experiment, the system named is Salmonella typhi. Kind of experiment: Antibacterial activity against Salmonella enterica subsp. enterica serovar Typhi assessed as growth inhibition after 24 hr by two fold serial dilution method.
The next experiment has as its system Klebsiella pneumoniae. Kind of experiment: Antibacterial activity against Klebsiella pneumoniae assessed as growth inhibition after 24 hr by two-fold serial dilution method.
Another experiment relates to Escherichia coli. Kind of experiment: Antibacterial activity against Escherichia coli assessed as growth inhibition after 24 hr by two-fold serial dilution method.

With `O=C(/C=C/C=C/c1ccc2c(c1)OCO2)Nc1ccc(Cl)cc1`, the MIC in the experiment on Pseudomonas aeruginosa came out at 200 µg/mL (≈ 610 µM); in the experiment with Staphylococcus aureus, 200 µg/mL (≈ 610 µM); with Bacillus subtilis it was 500 µg/mL (≈ 1530 µM); in the experiment with Shigella dysenteriae, 200 µg/mL (≈ 610 µM); in the experiment on Salmonella typhi it was 400 µg/mL (≈ 1220 µM); in the experiment with Klebsiella pneumoniae, 300 µg/mL (≈ 915 µM). For the same compound, the MIC in the experiment with Escherichia coli stood at 100 µg/mL (≈ 305 µM).

Regarding `O=C(/C=C/C=C/c1ccc2c(c1)OCO2)N[C@@H](Cc1c[nH]c2ccccc12)C(=O)O`, the MIC worked out at 200 µg/mL (≈ 495 µM) with Pseudomonas aeruginosa; 300 µg/mL (≈ 742 µM) in the experiment on Staphylococcus aureus; 400 µg/mL (≈ 989 µM) with Bacillus subtilis; 300 µg/mL (≈ 742 µM) in the experiment with Shigella dysenteriae; 200 µg/mL (≈ 495 µM) in the experiment with Salmonella typhi; 200 µg/mL (≈ 495 µM) in the experiment with Klebsiella pneumoniae. The MIC in the experiment on Escherichia coli came out at 400 µg/mL (≈ 989 µM).

On to `O=C(/C=C/C=C/c1ccc2c(c1)OCO2)Nc1ccc(Br)cc1`, for which the MIC stood at 500 µg/mL (≈ 1340 µM) in the experiment with Pseudomonas aeruginosa; 300 µg/mL (≈ 806 µM) with Staphylococcus aureus; 500 µg/mL (≈ 1340 µM) in the experiment with Bacillus subtilis; 300 µg/mL (≈ 806 µM) in the experiment with Shigella dysenteriae; 300 µg/mL (≈ 806 µM) in the experiment with Salmonella typhi; 100 µg/mL (≈ 269 µM) in the experiment with Klebsiella pneumoniae. Further, the MIC in the experiment on Escherichia coli came out at 200 µg/mL (≈ 537 µM).

As to `O=C(/C=C/C=C/c1ccc2c(c1)OCO2)N[C@@H](Cc1ccccc1)C(=O)O`, the MIC with Pseudomonas aeruginosa turned out to be 400 µg/mL (≈ 1090 µM); with Staphylococcus aureus, 400 µg/mL (≈ 1090 µM); in the experiment with Bacillus subtilis, 400 µg/mL (≈ 1090 µM); with Shigella dysenteriae, 150 µg/mL (≈ 411 µM); with Salmonella typhi, 200 µg/mL (≈ 547 µM); with Klebsiella pneumoniae, 300 µg/mL (≈ 821 µM). Moreover, the MIC in the experiment with Escherichia coli was found to be 300 µg/mL (≈ 821 µM).

As for `O=C(/C=C/C=C/c1ccc2c(c1)OCO2)N[C@@H](Cc1cnc[nH]1)C(=O)O`, the MIC in the experiment on Pseudomonas aeruginosa was determined as 300 µg/mL (≈ 844 µM); in the experiment on Staphylococcus aureus, 300 µg/mL (≈ 844 µM); with Bacillus subtilis it was 300 µg/mL (≈ 844 µM); in the experiment with Shigella dysenteriae it was 200 µg/mL (≈ 563 µM); in the experiment with Salmonella typhi, 300 µg/mL (≈ 844 µM); in the experiment with Klebsiella pneumoniae, 300 µg/mL (≈ 844 µM). The MIC in the experiment with Escherichia coli came to 200 µg/mL (≈ 563 µM).

For `CC1(C)S[C@@H]2[C@H](NC(=O)[C@H](N)c3ccccc3)C(=O)N2[C@H]1C(=O)O` [AMPICILLIN], the MIC is 50 µg/mL (≈ 143 µM) in the experiment on Pseudomonas aeruginosa; 11 µg/mL (≈ 31.5 µM) in the experiment with Staphylococcus aureus; 10 µg/mL (≈ 28.6 µM) with Bacillus subtilis; 16 µg/mL (≈ 45.8 µM) with Shigella dysenteriae; 15 µg/mL (≈ 42.9 µM) with Salmonella typhi; 8 µg/mL (≈ 22.9 µM) in the experiment on Klebsiella pneumoniae. The MIC with Escherichia coli was determined as 5 µg/mL (≈ 14.3 µM).

For the compound `O=C(/C=C/C=C/c1ccc2c(c1)OCO2)N1CCCCC1` [PIPERINE], the MIC in the experiment on Pseudomonas aeruginosa worked out at 100 µg/mL (≈ 350 µM); in the experiment with Staphylococcus aureus it was 300 µg/mL (≈ 1050 µM); in the experiment on Bacillus subtilis it was 500 µg/mL (≈ 1750 µM); with Shigella dysenteriae it was 600 µg/mL (≈ 2100 µM); in the experiment on Salmonella typhi, 200 µg/mL (≈ 701 µM); with Klebsiella pneumoniae, 200 µg/mL (≈ 701 µM). The MIC in the experiment on Escherichia coli is 300 µg/mL (≈ 1050 µM).
